# System: MCF7
# Assay: Cytotoxicity against human MCF7 cells assessed as growth inhibition after 96 hrs by MTT assay
# Format: functional, cell-based
row,SMILES,IC50 [µM]
1,Cn1cnc(Cc2ccc3c(c2)OCO3)c1,> 100
2,Cn1cc(Cc2ccc3c(c2)OCO3)nc1N,23.4
3,COc1ccc(-c2c3cc(OCc4ccccc4)c(OC)cc3cc3c2ncn3C)cc1,76.9
4,COc1ccc(-c2c3cc(OC)c(OC)cc3cc3c2nc(N)n3C)cc1,4.4
5,COc1ccc(-c2c3cc(O)c(OC)cc3cc3c2[nH]c(=N)n3C)cc1 [KEALIININE A],> 100
6,COc1ccc(-c2c3cc(OC)c(OC)cc3cc3c2ncn3C)cc1,99.8
7,COc1ccc(-c2c3[nH]c(=O)n(C)c3cc3cc(OC)c(OC)c(OC)c23)cc1,91.9
8,COc1ccc(-c2c3ncn(C)c3cc3cc(OC)c(OC)c(OC)c23)cc1,> 100
9,COc1ccc(Cc2c(C(OC)c3ccc(OC)cc3)nc(N)n2C)cc1 (stereo unspecified),22.7
10,COc1ccc(-c2c3cc(O)c(OC)cc3cc3c2ncn3C)cc1,41.1
11,COc1ccc(-c2c3nc(N)n(C)c3cc3cc(OC)c(OC)c(OC)c23)cc1,19.5
12,COc1ccc(Cn2cc(Cc3ccc(OC)c(OC)c3)nc2/N=C2/NC(=O)N(C)C2=O)cc1 [ISONAAMIDINE E],5.78
13,COc1ccc(Cc2nc(N)n(C)c2Cc2ccc(OC)cc2)cc1,28.8
14,COc1ccc(-c2c3cc(OC)c(OC)c(OC)c3cc3c2nc(N)n3C)cc1,4.94
15,COc1ccc(Cc2nc(NC3=NC(=O)N(C)C3=O)n(C)c2Cc2ccc(OC)cc2)cc1,5.08
16,COc1ccc(-c2c3cc(OC)c(OC)c(OC)c3cc3c2ncn3C)cc1,68.2
17,COC1=C(OC)C(=O)c2c(cc3c(ncn3C)c2-c2ccc(OC)cc2)C1=O,92
18,COc1ccc(Cn2cc(Cc3ccc(OC)c(OC)c3)nc2N)cc1 [ISONAAMINE C],28
19,CN1C(=O)N=C(Nc2nc(Cc3ccc4c(c3)OCO4)cn2C)C1=O [CLATHRIDINE],> 100
20,COC1=C(OC)C(=O)c2c(cc3c(nc(N)n3C)c2-c2ccc(OC)cc2)C1=O,> 100
21,COC1=C(OC)C(=O)c2c(cc3c([nH]c(=O)n3C)c2-c2ccc(OC)cc2)C1=O,43.8
